This is an account of results in patent US20090196910A1, “Sustained-Release Preparation of Statin Drugs” (PFICKER PHARMACEUTICALS LTD., priority 2005, published 2009).

In series [1] the test system is carboxylate hydrolases in human blood. Kind of series: Hydrolysis of 4-esters of statin drugs by ester hydrolases in vitro. Type of series: in vitro ADME. To be noted: pH 6.5-7.5. From the text:
As shown in the in vitro experiments, the esters of statin drugs formed at the 4-hydroxyl group can be transformed into statin drugs by many dominant human ester hydrolases at a pH of 6.5-7.5.

The conditions of series [2]: oral administration; cited from earlier work.

In the case of `CCC(C)(C)C(=O)O[C@H]1C[C@@H](C)C=C2C=C[C@H](C)C(CC[C@@H]3C[C@@H](OC(C)=O)CC(=O)O3)C21` (some centres unmarked) [4-acetate of simvastatin], in series [1], the “transformation into the statin drug by ester hydrolases” value is “readily transformed into simvastatin”.

Turning to `CC(C)c1c(C(=O)Nc2ccccc2)c(-c2ccccc2)c(-c2ccc(F)cc2)n1CC[C@@H](O)C[C@@H](O)CC(=O)O` [atovastatin], the bio-availability entry in series [2] is “no more than 14%”.
